Tests used:
uterine endometrium [1] = assay: Progestomimetic activity, intrauterine, change in uterine endometrium (McPhail); assay type: in vivo, immature female rabbits; conditions: method of McPhail
Description: (§1) Groups of three immature female rabbits weighing about 1 kg were topically treated on the dorsal skin with 25 μg of estradiol in 10 μl of ethanol on day 1. On day 4 the product to be tested dissolved in 0.1 ml, of sesame oil containing 5% benzyl alcohol was introduced into a part of the uterus isolated between two ligatures. On the sixth day the animals were sacrificed, their uteruses retained and fixed in Bouin's solution for histological examination. Changes in the uterine endometrium were noted after the method of McPhail.

granuloma = assay: Anti-inflammatory activity, classical granuloma test (cotton pellets); assay type: in vivo, Wistar rats; conditions: subcutaneous dose of 50 mg/kg
Description: II. Anti-inflammatory Activity
(§2) The anti-inflammatory activity of the compound of Example 4 was determined by the classical granuloma test by a modification of the Meier et al test [Experientia, Vol. 6 (1950), p. 469] in which normal female Wistar rats weighing 100 to 110 g received an implantation of 2 pellets of cotton weighing 10 mg each under the thorax skin. The subcutaneous treatment which began immediately after the implantation for 2 days was 2 injections per day. 16 hours after the last injection, the animals were killed and the pellets together with the granuloma tissue formed were weighed in the fresh state and after 16 hours at 60° C. The weight of the granuloma was obtained by subtracting the initial weight of the cotton. The thymus was also removed and weighed to determine the thymolytic activity of the test product.

[2] = target: T1, Gluocorticoid receptor of thymus of rats (Rattus norvegicus, UniProt P06536); assay: Glucocorticoid receptor binding (displacement of tritiated dexamethasone); conditions: conclusion
T1 construct: The thymus were removed and homogenized at 0° C; from tissue; host or cells: rat thymus, 105,000 g supernatant (adrenalectomized male Sprague-Dawley rats)
T1 sequence (P06536 1-795): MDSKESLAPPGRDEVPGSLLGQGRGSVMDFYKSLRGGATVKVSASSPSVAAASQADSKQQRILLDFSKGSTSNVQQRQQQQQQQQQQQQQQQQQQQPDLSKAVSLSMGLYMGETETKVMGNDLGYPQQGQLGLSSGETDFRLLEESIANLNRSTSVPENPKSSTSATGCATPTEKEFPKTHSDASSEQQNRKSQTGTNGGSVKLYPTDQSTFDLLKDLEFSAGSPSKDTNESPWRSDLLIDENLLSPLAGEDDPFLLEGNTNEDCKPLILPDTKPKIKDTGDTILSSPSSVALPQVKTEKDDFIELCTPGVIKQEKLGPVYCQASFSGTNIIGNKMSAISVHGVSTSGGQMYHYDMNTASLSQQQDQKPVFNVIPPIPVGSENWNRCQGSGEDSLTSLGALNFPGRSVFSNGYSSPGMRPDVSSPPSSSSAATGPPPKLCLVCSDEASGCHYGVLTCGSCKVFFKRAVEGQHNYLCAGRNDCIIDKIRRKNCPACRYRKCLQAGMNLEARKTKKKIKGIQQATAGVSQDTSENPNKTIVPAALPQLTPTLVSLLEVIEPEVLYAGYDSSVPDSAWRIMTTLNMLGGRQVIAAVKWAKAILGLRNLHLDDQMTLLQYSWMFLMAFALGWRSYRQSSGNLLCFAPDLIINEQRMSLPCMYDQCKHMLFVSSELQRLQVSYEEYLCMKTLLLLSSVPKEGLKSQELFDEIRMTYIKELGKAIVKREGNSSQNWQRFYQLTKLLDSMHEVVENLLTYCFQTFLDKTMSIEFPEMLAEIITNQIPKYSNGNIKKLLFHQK
Description: D. Gluocorticoid receptor of thymus of rats
Male Sprague-Dawley EPOS rats weighing 160 to 200 g were surrenalectomized and the animals were killed 4 to 8 days later. The thymus were removed and homogenized at 0° C. in a buffered TS solution of 10 mM, Tris, 0.25M of Saccharose, 2 mM of dithiothreitol HCl for a pH of 7.4 using a polytetrafluoroethylene-glass Potter at a rate of 1 g of tissue per 10 ml of TS. […] The concentration of tied tritiated dexamethasone (B) was measured for each incubate by the adsorption on carbon-dextran technique.
The calculation of the relative affinity of […] (ARL) was identical for all of the above receptor tests. One traced the following two curves: the percentage of tied tritiated hormone B/T as a function of the logarithm of the cold hormone concentration and B/T as a function of the logarithm of the concentration of the cold test product. One determined the line of the equation. [formula]
The intersection of the I50 line and the curves permits one to determine the concentrations of the cold hormone of the reference (CH) and the cold test compound (CX) which inhibit by 50% the tieing of tritiated hormone with the receptor. The relative affinity of tieing (ARL) of the test product was determined by the equation: [formula]

female rats = assay: Anti-implantation and abortive activities in female rats; assay type: in vivo, rat; conditions: by mouth
Description: V. ANTI-IMPLANTATION AND ABORTIVE ACTIVITIES IN FEMALE RATS
The first day of gestation is determined by the presence of sperm in the vagina.
The animals were sacrificed between the 5th and 8th day after the last treatment and the uterus was examined.

thymus = assay: Thymolytic activity in the granuloma test; assay type: in vivo, Wistar rats; conditions: subcutaneous dose of 50 mg/kg
Description: as §2

uterine endometrium [3] = assay: Anti-progestomimetic activity versus progesterone, oral, change in uterine endometrium (McPhail); assay type: in vivo, immature female rabbits
Description: (§3) IV. Progestomimetic and Anti-progestomimetic Activity
(§4) a) Groups of immature female rabbits weighing about 1 kg had administered to them subcutaneously from day 1 to day 5, 5 μg of estradiol. The product tested was afterward administered orally from day 8 to day 11 in a volume of 0.5 cm^3 of water containing 0.5% of carboxymethyl cellulose and 0.2% of Tween. On day 12, the rabbits were sacrificed, their uteruses were retained and fixed in Bouin's solution and histologically studied.
(§5) The changes in the uterine endometrium were noted according to the method of McPhail.

uterine endometrium [4] = assay: Progestomimetic activity, oral, change in uterine endometrium (McPhail); assay type: in vivo, immature female rabbits
Description: as §3, §4, §5

uterine endometrium [5] = assay: Anti-progestomimetic activity versus progesterone, intrauterine, change in uterine endometrium (McPhail); assay type: in vivo, immature female rabbits
Description: as §1

CC#C[C@]1(O)CC[C@H]2[C@@H]3CCC4=CC(=O)CCC4=C3[C@@H](c3ccc(N(C)C)cc3)C[C@@]21C [Example 19, 11β-[4-(N,N-dimethylamino)-phenyl]-17α-(prop-1-ynyl)-Δ^4,9-estradiene-17β-ol-3-one] was tested, and the “CHANGE IN THE ENDOMETRIUM” value (uterine endometrium [1]; 30 μg/rabbit) was 0, the “CHANGE IN THE ENDOMETRIUM” value (uterine endometrium [1]; 500 μg/rabbit) was 0 and the glucocorticoidal anti-inflammatory activity (granuloma) was “did not show any glucocorticoidal anti-inflammatory activity”. The “affinity for glucocorticoid receptors (in words)” value [2] was “very remarkable affinity”, the “RESULTS (anti-implantation / abortion)” value (female rats; days 1, 2, 3, 2 mg/kg/day) was “No action” and the “RESULTS (anti-implantation / abortion)” value (female rats; days 1, 2, 3, 10 mg/kg/day) was “Non-implantation”. For the same compound, the “RESULTS (anti-implantation / abortion)” value (female rats; days 4, 5, 6, 2 mg/kg/day) was “Non-implantation”, the “RESULTS (anti-implantation / abortion)” value (female rats; days 4, 5, 6, 10 mg/kg/day) was “Non-implantation” and the “RESULTS (anti-implantation / abortion)” value (female rats; days 7, 8, 9, 2 mg/kg/day) was “Abortion”. The “RESULTS (anti-implantation / abortion)” value (female rats; days 7, 8, 9, 10 mg/kg/day) was “Abortion”, the “RESULTS (anti-implantation / abortion)” value (female rats; days 10, 11, 12, 2 mg/kg/day) was “Abortion” and the “RESULTS (anti-implantation / abortion)” value (female rats; days 10, 11, 12, 10 mg/kg/day) was “Abortion”. The “Abortion, % of the animals” value (female rats; days 13, 14, 15, 2 mg/kg/day) was 50%, the “RESULTS (anti-implantation / abortion)” value (female rats; days 13, 14, 15, 10 mg/kg/day) was “Abortion” and the thymolytic activity (thymus) was “did not show any glucocorticoidal anti-inflammatory activity or thymolytic activity”. The “CHANGE IN THE ENDOMETRIUM” value (uterine endometrium [3]; progesterone 0.2 mg subcutaneously + 0.3 mg/kg by mouth) was 2.8 McPHAIL UNTS, the “CHANGE IN THE ENDOMETRIUM” value (uterine endometrium [3]; progesterone 0.2 mg subcutaneously + 1 mg/kg by mouth) was 2.1 McPHAIL UNTS and the “CHANGE IN THE ENDOMETRIUM” value (uterine endometrium [3]; progesterone 0.2 mg subcutaneously + 3 mg/kg by mouth) was 1.4 McPHAIL UNTS. The “CHANGE IN THE ENDOMETRIUM” value (uterine endometrium [3]; progesterone 0.2 mg subcutaneously + 10 mg/kg by mouth) was 0.6 McPHAIL UNTS, the “CHANGE IN THE ENDOMETRIUM” value (uterine endometrium [3]; progesterone 0.2 mg subcutaneously + 20 mg/kg by mouth) was 0 McPHAIL UNTS and the “CHANGE IN THE ENDOMETRIUM” value (uterine endometrium [4]; 0.3 mg/kg by mouth) was 0 McPHAIL UNTS. For the same compound, the “CHANGE IN THE ENDOMETRIUM” value (uterine endometrium [4]; 1.0 mg/kg by mouth) was 0 McPHAIL UNTS, the “CHANGE IN THE ENDOMETRIUM” value (uterine endometrium [4]; 3.0 mg/kg by mouth) was 0 McPHAIL UNTS and the “CHANGE IN THE ENDOMETRIUM” value (uterine endometrium [4]; 10.0 mg/kg by mouth) was 0 McPHAIL UNTS. For the same compound, the “CHANGE IN THE ENDOMETRIUM” value (uterine endometrium [4]; 50 mg/kg by mouth) was 0 McPHAIL UNTS, the “CHANGE IN THE ENDOMETRIUM” value (uterine endometrium [5]; progesterone 10 μg + 1 μg/rabbit) was 1.6 and the “CHANGE IN THE ENDOMETRIUM” value (uterine endometrium [5]; progesterone 10 μg + 3 μg/rabbit) was 1.3. The “CHANGE IN THE ENDOMETRIUM” value (uterine endometrium [5]; progesterone 10 μg + 10 μg/rabbit) was 1.0, the “CHANGE IN THE ENDOMETRIUM” value (uterine endometrium [5]; progesterone 10 μg + 30 μg/rabbit) was 0.6 and the “CHANGE IN THE ENDOMETRIUM” value (uterine endometrium [5]; progesterone 10 μg + 90 μg/rabbit) was 0.6.
